Reference: patent US10406124B2, “Method of treatment of gynecological cancer with anti-RAGE antibodies” (Swansea University, priority 2014, dated 2019)
Where two headings read alike, the source gives them in different places. Non-standard residues stand in square brackets, D forms with d. Residues, ends and D or L forms follow the SMILES beside them. *: point of attachment. Dolaproine = CO[C@@H]([C@@H]1CCCN1)[C@@H](C)C(=O)O; Dil = CC[C@H](C)[C@H](NC)[C@@H](CC(=O)O)OC; X1 = C[C@@H](N*)[C@@H](O)c1ccccc1; NMeV = CN[C@H](C(=O)O)C(C)C

Experiments:
RAGE = RAGE protein expression by immunohistochemistry in endometrial biopsies of patients taking tamoxifen; format: in vivo, human
Protocol: RAGE protein expression was measured by Immunohistochemistry in endometrial biopsies from patients diagnosed with endometrial hyperplasia, Type I or Type II endometrial cancer (EC), postmenopausal controls as well as breast cancer patients taking tamoxifen as part of their treatment that have developed, or not, endometrial cancer. 138 patients were grouped as follows: PM (n=25, median=0.2), Hyperplasia (n=21, median=5.5), type I EC (n=18, median=1.5), type II EC (n=17, median=2), TX no EC (n=19, median=4), type I EC plus TX (n=21, median=4) and type II EC plus TX (n=17, median=0.2).
IHC samples were scored blind by three independent observers. Values shown are median IHC scores and statistical analysis was performed using a Mann-Whitney test *p<0.05, **p<0.01, ***p<0.001, compared to PM control.

TOV112D cells = experiment: Cell viability / cytotoxicity of RAGE ADCs in TOV112D ovarian cancer cells; format: cell-based, human; conditions: 24 h, free cytotoxin
Protocol: (§1) Endometrial (Ishikawa) or ovarian (TOV112D) cancer cells were cultured in 96-well plates and treated with an extended concentration range of MMAE, MMAF, RAGE MMAE or RAGE MMAF for 24 or 48 h. Data was analysed by non-linear regression and IC50 concentrations determined for each treatment.
Data are presented as box plots showing the median (line), 25th and 75th percentiles (box) and 10th and 90th percentile (whiskers), n=4. Data were analysed by ANOVA and Dunnett's pairwise multiple comparison t-test.
The linkers used in Examples 3 & 4 were directly compared. […] After treatment, cell viability (FIG. 17) was determined by a fluorescence-based cell viability assay (Apotox Glo Triplex assay, Promega) according to the manufacturer's instructions. […] Data were analysed by ANOVA and Dunnett's pairwise multiple comparison t-test. […]
Comparisons of the AA4, HG6 and DF6 ADCs to the SNIPER ADC were made within normal ovarian (HOSEpic) and ovarian cancer (TOV112D and SKOV3) cells, and normal endometrial (Healthy) and endometrial cancer (HEC1A, HEC1B and Ishikawa) cells. Cells were treated for 96 h with 5 μg/ml of each of the ADCs, and cell health monitored as previously described. […] Data are presented as mean (SEM), and were analysed by ANOVA and Dunnett's pairwise multiple comparison t-test.

Ishikawa cells = experiment: Cell viability / cytotoxicity of RAGE ADCs in Ishikawa endometrial cancer cells; format: cell-based; conditions: Homo sapiens, read-out: IC50 of drug alone
Protocol: as §1
After treatment, cell viability in both cell lines (FIG. 13), and cell apoptosis in Ishikawa cells (caspase activation; FIG. 14) were determined by a fluorescence-based cell viability assay (Apotox Glo Triplex assay, Promega) according to the manufacturer's instructions. Data are presented as box plots showing the median (line), 25th and 75th percentiles (box) and 10th and 90th percentile (whiskers), n=4. Data were analysed by ANOVA and Dunnett's pairwise multiple comparison t-test. […]

Row | Compound | RAGE expression, median IHC score (RAGE; breast cancer patients taking tamoxifen, no endometrial cancer (TX no EC), n=19) | effect on endometrial RAGE expression (RAGE; endometrium from EC patients taking vs not taking tamoxifen) | RAGE expression, median IHC score (RAGE; type I EC plus TX, n=21) | RAGE expression, median IHC score (RAGE; type II EC plus TX, n=17) | IC50 of drug alone (TOV112D cells) | IC50 (Ishikawa cells; 24 h) [µM] | IC50 (Ishikawa cells; 48 h) [µM]
1 | CC/C(=C(\c1ccccc1)c1ccc(OCCN(C)C)cc1)c1ccccc1 [tamoxifen] | 4 | upregulation of RAGE | 4 | 0.2 |  |  | 
2 | CC[C@H](C)[C@@H]([C@@H](CC(=O)N1CCC[C@H]1[C@H](OC)[C@@H](C)C(=O)N[C@@H](Cc1ccccc1)C(=O)O)OC)N(C)C(=O)[C@@H](NC(=O)[C@@H](NC)C(C)C)C(C)C [MMAF, (S)-2-((2R,3R)-3-((S)-1-((3R,4S,5S)-4-((S)—N,3-dimethyl-2-((S)-3-methyl-2-(methylamino)butanamido)butanamido)-3-methoxy-5-methylheptanoyl)pyrrolidin-2-yl)-3-methoxy-2-methylpropanamido)-3-phenylpropanoic acid] (H-[NMeV]V[Dil][Dolaproine]F-OH) |  |  |  |  | greater than the top concentration tested | 1.3 | 0.63
3 | CC[C@H](C)[C@@H]([C@@H](CC(=O)N1CCC[C@H]1[C@H](OC)[C@@H](C)C(=O)N[C@H](C)[C@@H](O)c1ccccc1)OC)N(C)C(=O)[C@@H](NC(=O)[C@@H](NC)C(C)C)C(C)C [MMAE, (S)—N-((3R,4S,5S)-1-((S)-2-((1R,2R)-3-(((1S,2R)-1-hydroxy-1-phenylpropan-2-yl)amino)-1-methoxy-2-methyl-3-oxopropyl)pyrrolidin-1-yl)-3-methoxy-5-methyl-1-oxoheptan-4-yl)-N,3-dimethyl-2-((S)-3-methyl-2-(methylamino)butanamido)butanamide] (H-[NMeV]V[Dil][Dolaproine]-X1) |  |  |  |  | greater than the top concentration tested | 1.4 | 0.46
